Consider 25 molecules from patent publication US8329699B2, “Pyrrolopyrazine kinase inhibitors” (Hoffmann-La Roche Inc., priority 2010, dated 2012).

Data set [1] deals with T1, JAK3: Recombinant human kinase domain (h-jak3-sf21-c) (Homo sapiens, UniProt P52333).
T1 construct: JAK3: Recombinant human kinase domain from Millipore (Cat # 14-629) or prepared; purchased Millipore 14-629
Briefly: Determination of IC50 of Janus Kinase (JAK) inhibition, JAK3 (radioactive end-point assay with 33P-ATP). Format: biochemical. To be noted: ATP 1.5 uM, peptide 50 uM, 20 minutes, room temperature. The source says: Determination of IC50 of Janus Kinase (JAK) Inhibition:
Enzymes and peptide substrate used are described below: • JAK1: Recombinant human kinase domain from Invitrogen (Cat # PV4774) • JAK3: Recombinant human kinase domain from Millipore (Cat # 14-629) or prepared. • JAK2: Recombinant human kinase domain from Millipore (Cat # 14-640) • Substrate: N-terminally biotinylated 14-mer peptide derived from activation loop of JAK1 with sequence of the peptide substrate: Biotin-[…]
Assay conditions used are described below: • Assay Buffer: JAK Kinase Buffer: 50 mM Hepes [pH 7.2], 10 mM MgCl2, 1 mM DTT, 1 mg/mL BSA. The assay is carried out in this buffer. • Assay Format The kinase activity of all three JAK kinases is measured using a radioactive, end-point assay and with trace amounts of^33P-ATP. The assays are carried out in 96-well polypropylene plates. Experimental Method:
All concentrations are final in the reaction mixture and all incubations are carried at room temperature. Assay steps are described below: • 1) Compounds are serially diluted in 100% DMSO typically at a 10× starting concentration of 1 mM. Final concentration of DMSO in the reaction is 10%. • 2) Compounds are preincubated with enzyme (0.5 nM JAK3 (commercially available), 0.2 nM JAK3 (prepared), 1 nM JAK2, 5 nM JAK1) for 10 minutes. • 3) Reactions are initiated by the addition of a cocktail of the two substrates (ATP and peptide premixed in the JAK Kinase Buffer). In the JAK2/JAK3 assays, ATP and the peptide are used at concentrations of 1.5 uM and 50 uM, respectively. JAK1 assay is carried out at an ATP concentration of 10 uM and a peptide concentration of 50 uM. • 4) The duration of the assay for JAK2 and JAK3 is 20 minutes. JAK1 assay is carried out for 40 minutes. With all three enzymes, reactions are terminated by the addition of 0.5M EDTA to a final concentration of 100 mM. • 5) 25 ul of terminated reactions are transferred to 150 ul of a 7.5% (v/v) slurry of streptavidin-coated sepharose beads in MgCl2- and CaCl2-free 1× Phosphate Buffered Saline containing 50 mM of EDTA in 96-well, 1.2 um MultiScreen-BV filter plates. • 6) After a 30-minute incubation, the beads are washed under vacuum with the following buffers: • a. 3 to 4 washes with 200 ul of 2M NaCl. • b. 3 to 4 washes with 200 ul of 2M NaCl plus 1% (v/v) phosphoric acid. • c. 1 wash with water. • 7) Washed plates are dried in a 60° C. oven for between 1 to 2 hours. • 8) 70 ul of Microscint 20 scintillation fluid is added to each well of filter plates and after at least 30 minutes of incubation, radioactive counts are measured in a Perkinelmer microplate scintillation counter.

In general, IC50 refers to the point on the concentration scale where inhibition reaches its midpoint. Broadly, the melting point is the temperature, or range, at which the solid turns liquid.

SMILES strings stand for the structures. Values joined by “and” are separate entries in the source; they are usually repeats but may differ in a detail not shown here. Equal entries are not always repeated.

T1 sequence (P52333 822-1111 limits assumed): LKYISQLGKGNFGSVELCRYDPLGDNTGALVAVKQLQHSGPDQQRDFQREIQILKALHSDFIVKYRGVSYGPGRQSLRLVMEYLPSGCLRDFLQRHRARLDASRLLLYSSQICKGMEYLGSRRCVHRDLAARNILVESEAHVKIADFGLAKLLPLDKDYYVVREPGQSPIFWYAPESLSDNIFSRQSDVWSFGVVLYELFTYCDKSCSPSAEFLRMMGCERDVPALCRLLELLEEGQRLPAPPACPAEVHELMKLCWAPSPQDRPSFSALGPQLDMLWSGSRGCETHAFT

On to `CC(=O)N1CCC(NC(=O)c2c[nH]c3ncc(C4CC4)nc23)C1` (centres unmarked) [Compound I-37, 2-Cyclopropyl-5H-pyrrolo[2,3-b]pyrazine-7-carboxylic acid (1-acetyl-pyrrolidin-3-yl)-amide], for which the melting point lay within 242 to 245 °C. In addition, the IC50 in data set [1] stood at 120 nM.
For `O=C(NC1(CO)CCOCC1)c1c[nH]c2ncc(C3CC3)nc12` [Compound I-2, 2-Cyclopropyl-5H-pyrrolo[2,3-b]pyrazine-7-carboxylic acid (4-hydroxymethyl-tetrahydro-pyran-4-yl)-amide], in that order: 294 to 296 °C and 674 nM.
For `CC(C)(O)C1(NC(=O)c2c[nH]c3ncc(C4CC4)nc23)CCCC1` [Compound I-12, 2-Cyclopropyl-5H-pyrrolo[2,3-b]pyrazine-7-carboxylic acid [1-(1-hydroxy-1-methyl-ethyl)-cyclopentyl]-amide], in that order: 232 to 234 °C and 49.7 nM.
The matching figures for `Cc1ccc(C#N)cc1NC(=O)c1c[nH]c2ncc(C3CC3)nc12` [Compound I-9, 2-Cyclopropyl-5H-pyrrolo[2,3-b]pyrazine-7-carboxylic acid (5-cyano-2-methyl-phenyl)-amide]: 280 to 284 °C and 157 nM.
With `N#CCC1(NC(=O)c2c[nH]c3ncc(C4CC4)nc23)CCCC1` [Compound I-26, 2-Cyclopropyl-5H-pyrrolo[2,3-b]pyrazine-7-carboxylic acid (1-cyanomethyl-cyclopentyl)-amide], the melting point is 280 to 281.1 °C and 280 to 281 °C. Besides, the IC50 in data set [1] is 26.3 nM.
`CS(=O)(=O)N1CCC(NC(=O)c2c[nH]c3ncc(C4CC4)nc23)CC1` [Compound I-21, 2-Cyclopropyl-5H-pyrrolo[2,3-b]pyrazine-7-carboxylic acid (1-methanesulfonyl-piperidin-4-yl)-amide] came in with a melting point of 278 to 280 °C. Also, the IC50 in data set [1] turned out to be 96.2 nM.
`O=C(NC1(C(=O)C2CC2)CCCC1)c1c[nH]c2ncc(C3CC3)nc12` [Compound I-19, 2-Cyclopropyl-5H-pyrrolo[2,3-b]pyrazine-7-carboxylic acid (1-cyclopropanecarbonyl-cyclopentyl)-amide] displayed a melting point of 296 to 299 °C. Further, in data set [1], the IC50 amounted to 1040 nM.
Turning to `C[C@]1(O)CCC[C@@H]1NC(=O)c1c[nH]c2ncc(C3CC3)nc12` (relative stereo) [Compound I-11, 2-Cyclopropyl-5H-pyrrolo[2,3-b]pyrazine-7-carboxylic acid ((trans)-2-hydroxy-2-methyl-cyclopentyl)-amide], the melting point lay within 260 to 262 °C. For the same molecule, the IC50 in data set [1] turned out to be 12.9 nM.
For the molecule `CCCS(=O)(=O)N1CCCC(NC(=O)c2c[nH]c3ncc(C4CC4)nc23)C1` (centres unmarked) [Compound I-28, 2-Cyclopropyl-5H-pyrrolo[2,3-b]pyrazine-7-carboxylic acid [1-(propane-1-sulfonyl)-piperidin-3-yl]-amide], the melting point lay in the range of 228 to 230 °C. The IC50 in data set [1] turned out to be 22 nM.
The matching figures for `CC(=O)N1CCCC(NC(=O)c2c[nH]c3ncc(C4CC4)nc23)C1` (centres unmarked) [Compound I-38, 2-Cyclopropyl-5H-pyrrolo[2,3-b]pyrazine-7-carboxylic acid (1-acetyl-piperidin-3-yl)-amide]: 215 to 218 °C and 74.2 nM.
The matching figures for `N#Cc1cccc(NC(=O)c2c[nH]c3ncc(C4CC4)nc23)c1` [Compound I-5, 2-Cyclopropyl-5H-pyrrolo[2,3-b]pyrazine-7-carboxylic acid (3-cyano-phenyl)-amide]: 272 to 274 °C and 735 nM.
For `O=C(NC1CCCCC1)c1c[nH]c2ncc(Oc3ccc(F)cc3F)nc12` [Compound I-34, 2-(2,4-Difluoro-phenoxy)-5H-pyrrolo[2,3-b]pyrazine-7-carboxylic acid cyclohexylamide], in that order: 245 to 247 °C and 424 nM.
In the case of `CS(=O)(=O)N1CCC(NC(=O)c2c[nH]c3ncc(C4CC4)nc23)C1` (centres unmarked) [Compound I-20, 2-Cyclopropyl-5H-pyrrolo[2,3-b]pyrazine-7-carboxylic acid (1-methanesulfonyl-pyrrolidin-3-yl)-amide], the melting point is above 300 °C. For the same molecule, the IC50 in data set [1] stood at 35.4 nM.
For `CC(C)(O)C1(NC(=O)c2c[nH]c3ncc(C4CC4)nc23)CCC1` [Compound I-13, 2-Cyclopropyl-5H-pyrrolo[2,3-b]pyrazine-7-carboxylic acid [1-(1-hydroxy-1-methyl-ethyl)-cyclobutyl]-amide], in that order: 264 to 266 °C and 42.7 nM.
For `CC(=O)N1CCC(NC(=O)c2c[nH]c3ncc(C4CC4)nc23)CC1` [Compound I-36, 2-Cyclopropyl-5H-pyrrolo[2,3-b]pyrazine-7-carboxylic acid (1-acetyl-piperidin-4-yl)-amide], in that order: 273 to 275 °C and 167 nM.
The matching figures for `O=C(NC1CCCOC1)c1c[nH]c2ncc(C3CC3)nc12` (centres unmarked) [Compound I-6, 2-Cyclopropyl-5H-pyrrolo[2,3-b]pyrazine-7-carboxylic acid (tetrahydro-pyran-3-yl)-amide]: above 300 °C and 15.6 nM.
With `O=C(NC1CCCCC1)c1c[nH]c2ncc(Oc3ccccc3)nc12` [Compound I-33, 2-Phenoxy-5H-pyrrolo[2,3-b]pyrazine-7-carboxylic acid cyclohexylamide], the melting point was in the range of 255 to 257 °C. In data set [1], the IC50 stood at 153 nM.
The matching figures for `CC1(C)COCC1NC(=O)c1c[nH]c2ncc(C3CC3)nc12` (centres unmarked) [Compound I-16, 2-Cyclopropyl-5H-pyrrolo[2,3-b]pyrazine-7-carboxylic acid (4,4-dimethyl-tetrahydro-furan-3-yl)-amide]: above 300 °C and 9.8 nM.
For `CCS(=O)(=O)N1CCCC(NC(=O)c2c[nH]c3ncc(C4CC4)nc23)C1` (centres unmarked) [Compound I-27, 2-Cyclopropyl-5H-pyrrolo[2,3-b]pyrazine-7-carboxylic acid (1-ethanesulfonyl-piperidin-3-yl)-amide], in that order: 266 to 269 °C and 17.3 nM.
The matching figures for `O=C(NC1CCCCC1)c1c[nH]c2ncc(C3CC3)nc12` [Compound I-22, 2-Cyclopropyl-5H-pyrrolo[2,3-b]pyrazine-7-carboxylic acid cyclohexylamide]: above 300 °C and 5.2 nM.
In turn, `O=C(NC1(CO)CCCC1)c1c[nH]c2ncc(C3CC3)nc12` [Compound I-3, 2-Cyclopropyl-5H-pyrrolo[2,3-b]pyrazine-7-carboxylic acid (1-hydroxymethyl-cyclopentyl)-amide] came in with a melting point of 272 to 274 °C. Also, the IC50 in data set [1] came out at 44.2 nM.
In the case of `CC(C)(O)C1(NC(=O)c2c[nH]c3ncc(C4CC4)nc23)CCOC1` (centres unmarked) [Compound I-18, 2-Cyclopropyl-5H-pyrrolo[2,3-b]pyrazine-7-carboxylic acid [3-(1-hydroxy-1-methyl-ethyl)-tetrahydro-furan-3-yl]-amide], the melting point was in the range of 213 to 215 °C. The 50% inhibitory concentration (IC50) in data set [1] came to 342 nM.
For `O=C(NC1CCOCC1)c1c[nH]c2ncc(C3CC3)nc12` [Compound I-1, 2-Cyclopropyl-5H-pyrrolo[2,3-b]pyrazine-7-carboxylic acid (tetrahydro-pyran-4-yl)-amide], in that order: above 300 °C and 42 nM.
The matching figures for `O=C(NC1CCCC1)c1c[nH]c2ncc(C3CC3)nc12` [Compound I-23, 2-Cyclopropyl-5H-pyrrolo[2,3-b]pyrazine-7-carboxylic acid cyclopentylamide]: above 300 °C and 13.3 nM.
The matching figures for `CC1(C)CCCCC1NC(=O)c1c[nH]c2ncc(C3CC3)nc12` (centres unmarked) [Compound I-32, 2-Cyclopropyl-5H-pyrrolo[2,3-b]pyrazine-7-carboxylic acid (2,2-dimethyl-cyclohexyl)-amide]: 295 to 297 °C and 1.1 nM.
